From patent US4473646A, “Stereospecific asparaginases” (Development Finance Corp. of New Zealand, priority 1980, dated 1984)
Each block holds one molecule with its values, some of them ahead of it.

Tests used:
Format in all cases: biochemical
[1] = test system: L-asparaginase THERMUS T-351 (ATCC No. 31,674); experiment: Asparaginase properties: inhibitors; conditions: inhibitor concentration not stated
[2] = test system: D-asparaginase THERMUS T-351 (ATCC No. 31,674); experiment: Asparaginase properties: Km and inhibitors; conditions: for Inhibitors: loss of activity: inhibitor concentration not stated
[3] = target: T1, L-asparaginase E. COLI (B) (for comparison) (Escherichia coli, UniProt P00805); experiment: Asparaginase properties: Km and inhibitors (for comparison); conditions: inhibitor concentration not stated
T1 sequence (P00805 23-348): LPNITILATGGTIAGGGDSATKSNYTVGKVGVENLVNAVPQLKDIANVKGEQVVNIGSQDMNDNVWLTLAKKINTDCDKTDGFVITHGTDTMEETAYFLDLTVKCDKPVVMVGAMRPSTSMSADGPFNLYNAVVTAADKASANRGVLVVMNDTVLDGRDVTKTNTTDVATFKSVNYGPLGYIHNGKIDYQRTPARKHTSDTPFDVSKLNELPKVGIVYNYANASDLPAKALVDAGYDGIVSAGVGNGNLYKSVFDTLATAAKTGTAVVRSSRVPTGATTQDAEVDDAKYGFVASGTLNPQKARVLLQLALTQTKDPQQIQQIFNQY

SMILES: CC(N)=O [Acetamide]
Inhibitors: loss of activity [1]: No loss of activity | Inhibitors: loss of activity [2]: 100% | Inhibitors: loss of activity [3]: No loss of activity

Km ([2]; substrate not given, enzyme specific only for D-asparagine): 20 mM
SMILES: NC(=O)C[C@@H](N)C(=O)O [D-asparagine]

SMILES: O=C(O)c1cc[c]([Hg][Cl])cc1 [pCMB]
Inhibitors: loss of activity [1]: 100% | Inhibitors: loss of activity [2]: No loss of activity | Inhibitors: loss of activity [3]: No loss of activity
